Measurements published in patent publication US9284283B2, “Macrocyclic compounds for modulating IL-17” (ENSEMBLE THERAPEUTICS CORPORATION, priority 2012, dated 2016).

Each molecule was assayed against T1, recombinant human IL17a (binding to its receptor IL17R) (Homo sapiens, UniProt Q16552) (assay: IL-17 competition ELISA I (IL17a coated, IL17R/Fc binding)).
T1 construct: purchased R&D Systems 317-ILB (IL17a); 177-IR (IL17R/Fc)
T1 sequence (Q16552 20-155 limits assumed): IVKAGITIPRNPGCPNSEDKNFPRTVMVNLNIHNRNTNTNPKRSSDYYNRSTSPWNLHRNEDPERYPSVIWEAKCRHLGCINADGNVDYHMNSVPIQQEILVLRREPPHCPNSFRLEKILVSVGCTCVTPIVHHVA
Procedure: ELISA I: The ability of the compounds to block binding of IL17a to its receptor, IL17R, was analyzed in a competition ELISA format. High binding 96-well plates (Costar #9018) were coated with 20 nM of recombinant human IL17a (R&D Systems #317-ILB) in PBS (0.64 μg/mL), 100 μL/well, for 30 min at 37′C followed by 5 min at 4′C. Plates were then washed in PBST (PBS/0.05% Tween-20) on a plate washer, (Biotech EL-450) blocked with protein-free blocking buffer (Thermo Scientific #37573) in 250 μL/well for 30 min on shaker at room temperature, and then washed again. Compound dilutions prepared in PBST were added into the wells in duplicates followed by the addition of IL17R/Fc (R&D Systems #177-IR) at a final concentration of 12 nM. Plates were then incubated for 30 min at room temperature on the shaker. Wells with no compound served as a positive “no competitor” control, while wells with no IL17R/Fc and no compound served as a blank negative control. After an additional PBST wash, 50 ng/mL HRP-conjugated goat anti-human Fc IgG (KPL #04-10-20) was added to the plate for 30 min at room temperature, followed by PBST wash and addition of SureBlue™ TMB (KPL #52-00-03). After the sufficient color development, the reaction was fixed by the addition of 100 μL/well 0.5 N HCl and absorbance was measured at 450 nm on Biotek plate reader.
Data were processed using BioAssay Enterprise v10.1.4 (CambridgeSoft) software. Linear OD λ450 were plotted against log concentration (x) and fitted to a 4-parameter logistic equation. IC50 was calculated using positive ‘no competitor’ control data as an upper limit and blank control as a lower limit in each assay.

IC50 [nM] | Compound
< 100 | COC(=O)[C@@H]1CCCCNC(=O)CNC(=O)[C@@H](Cc2ccc(NC(=O)[C@H](Cc3ccccc3Cl)NC(=O)c3cccnc3)cc2)NC(=O)CC2(CCCC2)CC(=O)N1 [Compound 250]
100 to 1000 | O=C1CNC(=O)[C@@H](Cc2ccc(NC(=O)[C@H](Cc3ccccc3Cl)NC(=O)c3cc(F)c(F)cc3F)cc2)NC(=O)CC2(CCCC2)CC(=O)NCCCCCN1 [Compound 329]
1000 to 10000 | C[C@H]1C(=O)NCCCCCNC(=O)CC2(CCCC2)CC(=O)N[C@H](Cc2ccc(NC(=O)[C@H](Cc3ccccc3Cl)NC(=O)Cc3ccccc3)cc2)C(=O)N1C [Compound 291]
< 100 | O=C1CNC(=O)[C@@H](Cc2ccc(NC(=O)[C@H](Cc3ccccc3Cl)NC(=O)Cc3ccc(F)c(F)c3)cc2)NC(=O)CC2(CCCC2)CC(=O)NCCCCCN1 [Compound 298]
1000 to 10000 | CC1(C)CC(=O)NCCCCCNC(=O)CNC(=O)[C@@H](Cc2ccc(NC(=O)[C@H](Cc3cccs3)NC(=O)c3cccnc3)cc2)NC(=O)C1 [Compound 258]
< 100 | O=C1CNC(=O)[C@@H](Cc2ccc(NC(=O)[C@H](Cc3ccccc3Cl)NC(=O)Cc3ccc(F)cc3F)cc2)NC(=O)CC2(CCCC2)CC(=O)NCCCCCN1 [Compound 296]
< 100 | O=C1CC2(CCCC2)CC(=O)N[C@H](Cc2ccc(NC(=O)[C@H](Cc3ccccc3Cl)NC(=O)Cc3ccccc3)cc2)C(=O)N[C@@H](Cc2ccccc2)C(=O)NCCCCCN1 [Compound 317]
100 to 1000 | O=C1CC2(CCCC2)CC(=O)N[C@H](Cc2ccc(NC(=O)[C@H](Cc3ccccc3Cl)NC(=O)Cc3ccccc3)cc2)C(=O)NCC(=O)OCCCCCN1 [Compound 318]
100 to 1000 | C=CCOC(=O)N1CCNC(=O)CNC(=O)[C@@H](Cc2ccc(NC(=O)[C@H](Cc3ccccc3Cl)NC(=O)Cc3ccccc3)cc2)NC(=O)CC2(CCCC2)CC(=O)NCC1 [Compound 284]
100 to 1000 | C[C@@H]1NC(=O)[C@@H](Cc2ccc(NC(=O)[C@H](Cc3ccccc3Cl)NC(=O)Cc3ccccc3)cc2)NC(=O)CC2(CCCC2)CC(=O)NCCCCCNC1=O [Compound 290]
100 to 1000 | O=C1CNC(=O)[C@@H](Cc2ccc(NC(=O)[C@H](Cc3ccccc3Cl)NC(=O)c3ccc(F)c(F)c3F)cc2)NC(=O)CC2(CCCC2)CC(=O)NCCCCCN1 [Compound 328]
100 to 1000 | COCC(=O)N[C@@H](Cc1ccccc1Cl)C(=O)Nc1ccc(C[C@H]2NC(=O)CC3(CCCC3)CC(=O)NCCCCCNC(=O)CNC2=O)cc1 [Compound 234]
100 to 1000 | O=C1CNC(=O)[C@@H](Cc2ccc(NC(=O)[C@H](Cc3ccccc3Cl)NC(=O)c3cc(F)c(F)c(F)c3)cc2)NC(=O)CC2(CCCC2)CC(=O)NCCCCCN1 [Compound 326]
100 to 1000 | O=C1CC2(CCCC2)CC(=O)N[C@H](Cc2ccc(NC(=O)[C@@H](NC(=O)Cc3ccc(CO)cc3)C3CCCCC3)cc2)C(=O)NCCCCCCCCN1 [Compound 337]
100 to 1000 | O=C1CNC(=O)[C@@H](Cc2ccc(NC(=O)[C@H](Cc3ccc(F)cc3Cl)NC(=O)c3ccc(F)cc3)cc2)NC(=O)CC2(CCCC2)CC(=O)NCCOCCN1 [Compound 324]
100 to 1000 | O=C1CNC(=O)[C@@H](Cc2ccc(NC(=O)[C@H](Cc3ccccc3Cl)NC(=O)c3ccc(O)c(F)c3)cc2)NC(=O)CC2(CCCC2)CC(=O)NCCCCCN1 [Compound 277]
< 100 | O=C1CNC(=O)[C@@H](Cc2ccc(NC(=O)[C@H](Cc3ccccc3)NC(=O)Cc3ccccc3)cc2)NC(=O)CC2(CCCC2)CC(=O)NCCCCCN1 [Compound 237]
100 to 1000 | O=C1CC2(CCCC2)CC(=O)N[C@H](Cc2ccc(NC(=O)[C@@H](NC(=O)Cc3ccccc3)C3CCCCC3)cc2)C(=O)N[C@H](Cc2ccccc2)C(=O)NCCCCCN1 [Compound 331]
100 to 1000 | CN1CCCCCNC(=O)CNC(=O)[C@@H](Cc2ccc(NC(=O)[C@H](Cc3ccccc3Cl)NC(=O)c3ccc(F)cc3)cc2)NC(=O)CC2(CCCC2)CC1=O [Compound 306]
100 to 1000 | C[C@@H](O)[C@@H]1NC(=O)[C@@H](Cc2ccc(NC(=O)[C@H](Cc3ccccc3Cl)NC(=O)Cc3ccccc3)cc2)NC(=O)CC2(CCCC2)CC(=O)NCCCCCNC1=O [Compound 321]
1000 to 10000 | CN(C(=O)Cc1ccccc1)[C@@H](Cc1ccccc1)C(=O)Nc1ccc(C[C@H]2NC(=O)CC3(CCCC3)CC(=O)NCCCCCNC(=O)CNC2=O)cc1 [Compound 238]
1000 to 10000 | C[C@@H]1C(=O)NCCCCCNC(=O)CC2(CCCC2)CC(=O)N[C@H](Cc2ccc(NC(=O)[C@H](Cc3ccccc3Cl)NC(=O)Cc3ccccc3)cc2)C(=O)N1C [Compound 289]

IC50 [nM] | Compound
100 to 1000 | O=C1CNC(=O)[C@@H](Cc2ccc(NC(=O)[C@H](Cc3ccccc3Cl)NC(=O)CC3CCOCC3)cc2)NC(=O)CC2(CCCC2)CC(=O)NCCCCCN1 [Compound 275]
100 to 1000 | O=C1CNC(=O)[C@@H](Cc2ccc(NC(=O)[C@H](Cc3ccccc3Cl)NC(=O)c3ncco3)cc2)NC(=O)CC2(CCCC2)CC(=O)NCCCCCN1 [Compound 235]
< 100 | O=C1CNC(=O)[C@@H](Cc2ccc(NC(=O)[C@H](Cc3ccccc3Cl)NC(=O)Cc3cccc(O)c3)cc2)NC(=O)CC2(CCCC2)CC(=O)NCCCCCN1 [Compound 217]
1000 to 10000 | CC1(C)CC(=O)NCCCCCNC(=O)CNC(=O)[C@@H](Cc2ccc(NC(=O)[C@H](CC3CC3)NC(=O)Cc3ccccc3)cc2)NC(=O)C1 [Compound 245]
< 100 | COC(=O)[C@@H]1CCCCNC(=O)CNC(=O)[C@@H](Cc2ccc(NC(=O)[C@H](Cc3ccccc3Cl)NC(C)=O)cc2)NC(=O)CC2(CCCC2)CC(=O)N1 [Compound 248]
100 to 1000 | O=C1CNC(=O)[C@@H](Cc2ccc(NC(=O)[C@H](Cc3ccc(Cl)c(Cl)c3)NC(=O)Cc3ccccc3)cc2)NC(=O)CC2(CCCC2)CC(=O)NCCCCCN1 [Compound 241]
1000 to 10000 | O=C1CNC(=O)[C@@H](Cc2ccc(NC(=O)[C@H](Cc3ccccc3Cl)NC(=O)c3ccc(C(=O)O)cc3)cc2)NC(=O)CC2(CCCC2)CC(=O)NCCCCCN1 [Compound 299]
100 to 1000 | O=C1CC2(CCCC2)CC(=O)N[C@H](Cc2ccc(NC(=O)[C@H](Cc3ccccc3Cl)NC(=O)c3ccc(F)cc3)cc2)C(=O)N[C@@H](Cc2ccccc2)C(=O)NCCCCCN1 [Compound 309]
< 100 | CN1CCCCCNC(=O)CC2(CCCC2)CC(=O)N[C@H](Cc2ccc(NC(=O)[C@H](Cc3ccccc3Cl)NC(=O)Cc3ccccc3)cc2)C(=O)NCC1=O [Compound 281]
< 100 | O=C1CC2(CCCC2)CC(=O)N[C@H](Cc2ccc(NC(=O)[C@H](Cc3ccccc3Cl)NC(=O)Cc3ccc(O)cc3)cc2)C(=O)N[C@H](Cc2ccccc2)C(=O)NCCCCCN1 [Compound 262]
1000 to 10000 | O=C1CNC(=O)[C@@H](Cc2ccc(NC(=O)[C@H](Cc3ccccc3Cl)NC(=O)CN3CCCC3)cc2)NC(=O)CC2(CCCC2)CC(=O)NCCCCCN1 [Compound 301]
100 to 1000 | O=C1CNC(=O)[C@@H](Cc2ccc(NC(=O)[C@H](Cc3ccccc3Cl)NC(=O)C3CCOCC3)cc2)NC(=O)CC2(CCCC2)CC(=O)NCCCCCN1 [Compound 220]
100 to 1000 | O=C1CNC(=O)[C@@H](Cc2ccc(NC(=O)[C@H](Cc3ccccc3Cl)NC(=O)c3ccc(CO)cc3)cc2)NC(=O)CC2(CCCC2)CC(=O)NCCCCCN1 [Compound 219]
< 100 | CN1CCCCCNC(=O)CC2(CCCC2)CC(=O)N[C@H](Cc2ccc(NC(=O)[C@H](Cc3ccccc3Cl)NC(=O)Cc3ccc(O)cc3)cc2)C(=O)NCC1=O [Compound 307]
100 to 1000 | O=C1CNC(=O)[C@@H](Cc2ccc(NC(=O)[C@H](Cc3ccccc3Cl)NC(=O)CN3CCOCC3)cc2)NC(=O)CC2(CCCC2)CC(=O)NCCCCCN1 [Compound 304]
< 100 | O=C1CNC(=O)[C@@H](Cc2ccc(NC(=O)[C@H](Cc3ccccc3Cl)NC(=O)Cc3ccc(O)cc3)cc2)NC(=O)CC2(CCCC2)CC(=O)NCCCCCN1 [Compound 279]
100 to 1000 | O=C1CNC(=O)[C@@H](Cc2ccc(NC(=O)[C@H](Cc3ccccc3Cl)NC(=O)c3ccccc3O)cc2)NC(=O)CC2(CCCC2)CC(=O)NCCCCCN1 [Compound 330]
100 to 1000 | CC(C)(C)OC[C@@H]1NC(=O)[C@@H](Cc2ccc(NC(=O)[C@H](Cc3ccccc3Cl)NC(=O)Cc3ccccc3)cc2)NC(=O)CC2(CCCC2)CC(=O)NCCCCCNC1=O [Compound 320]
1000 to 10000 | O=C1CC2(CCCC2)CC(=O)N[C@H](Cc2ccc(NC(=O)[C@@H](NC(=O)Cc3ccccc3)C3CCCCC3)cc2)C(=O)NCCCCCCCCN1 [Compound 334]
< 100 | COC(=O)[C@@H]1CCCCNC(=O)CNC(=O)[C@@H](Cc2ccc(NC(=O)[C@@H](NC(=O)Cc3ccccc3)C3CCCCC3)cc2)NC(=O)CC2(CCCC2)CC(=O)N1 [Compound 282]
100 to 1000 | O=C1CNC(=O)[C@@H](Cc2ccc(NC(=O)[C@H](Cc3ccccc3Cl)NC(=O)CN3CCCCC3)cc2)NC(=O)CC2(CCCC2)CC(=O)NCCCCCN1 [Compound 300]
